For test [1] the following is noted: genetically and diet-induced obese mice; cited from earlier work.
The conditions of test [2]: mice; cited from earlier work.
A further test relates to angiogenesis. Conditions: cited from earlier work.
For test [3], the target named is T1, human MetAP2 enzyme (Homo sapiens, UniProt P50579). Kind of test: MetAP2 enzyme assay, MetAP2 enzyme complexed with manganese ions. The settings on record: MetAP2 Mn pIC50, 10 μM MnCl2; -log(IC50), IC50 molar.
Protocol: DNA encoding the full-length sequence of human MetAP2 enzyme is amplified by PCR and cloned into a pFastBac expression vector (Invitrogen). Recombinant baculovirus incorporating the MetAP2 construct is generated by transposition using the Bac-to-Bac system (Invitrogen). The expression of recombinant protein is carried out by infection of Spodoptera frugiperda Sf9 cells (Invitrogen) in 5L Wave Bioreactors (Wave Biotech). Recombinant protein is isolated from cellular extracts by binding to an SP Hitrap Fast Flow or SP Sepharose (Sigma) column, and the protein is eluted using a NaCl gradient. Partially purified extracts of MetAP2 are further purified by an AKTA FPLC over a Superdex-200 column (GE). The purity of MetAP2 protein is determined on denaturing SDS-PAGE gel.
The results for each well are expressed as percent inhibition and calculated using the equation:
Test [4] concerns the target T1, human MetAP2 enzyme. Kind of test: MetAP2 enzyme assay, MetAP2 enzyme complexed with cobalt ions. Conditions: MetAP2 Co pIC50, 10 μM CoCl2; -log(IC50), IC50 molar.

The values that follow come from patent US9475816B2, “Substituted-1,4-dihydropyrazolo[4,3-b]indoles” (TAKEDA PHARMACEUTICAL COMPANY LIMITED, priority 2012, dated 2016).

By IC50 is commonly meant the concentration at which inhibition is half-maximal. Read a low IC50 as higher potency.

T1 sequence (P50579 whole entry): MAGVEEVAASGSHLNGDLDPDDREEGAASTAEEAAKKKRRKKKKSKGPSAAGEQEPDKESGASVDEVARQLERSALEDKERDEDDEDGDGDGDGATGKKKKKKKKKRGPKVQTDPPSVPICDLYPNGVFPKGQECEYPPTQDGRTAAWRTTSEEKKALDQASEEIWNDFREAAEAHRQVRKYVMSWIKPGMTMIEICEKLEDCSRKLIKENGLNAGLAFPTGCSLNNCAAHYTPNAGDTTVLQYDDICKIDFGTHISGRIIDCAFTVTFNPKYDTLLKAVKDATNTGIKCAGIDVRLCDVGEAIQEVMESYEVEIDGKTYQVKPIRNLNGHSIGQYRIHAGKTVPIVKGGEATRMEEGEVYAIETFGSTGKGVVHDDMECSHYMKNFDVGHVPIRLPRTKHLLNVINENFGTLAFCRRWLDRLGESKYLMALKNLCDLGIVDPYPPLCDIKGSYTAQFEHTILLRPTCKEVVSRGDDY

Turning to beloranib hemioxalate [CKD-732], the “food intake, body weight, fat mass, size of adipocytes” value in test [1] was “decrease food intake, body weight, fat mass, and the size of adipocytes”.

With `CO[C@@H]1[C@H](OC(=O)/C=C/C=C/C=C/C=C/C(=O)O)CC[C@]2(CO2)[C@H]1[C@@]1(C)O[C@@H]1CC=C(C)C` [fumagillin], the “effect on diet-induced obesity” value in test [2] is “impair diet-induced obesity”. For the same molecule, the angiogenesis entry in the test with angiogenesis is on record as “inhibit angiogenesis”.

Regarding `COCCNC(=O)c1ccc(-n2c3ccc(F)cc3c3[nH]ncc32)c(C)n1` [Example 102, 5-(7-Fluoropyrazolo[4,3-b]indol-4(1H)-yl)-N-(2-methoxyethyl)-6-methylpicolinamide], the IC50 on human MetAP2 enzyme [3] was 39.8 nM; at human MetAP2 enzyme [4], 31.6 nM.

Consider `Cn1cc(-n2c3ccc(F)cc3c3[nH]ncc32)c(CO)n1` [Example 138, (4-(7-Fluoropyrazolo[4,3-b]indol-4(1H)-yl)-1-methyl-1H-pyrazol-3-yl)methanol], for which the IC50 against human MetAP2 enzyme [3] is 5.01 nM; against human MetAP2 enzyme [4] it was 10 nM.

Turning to `Cc1cc(N)ncc1-n1c2ccc(F)cc2c2[nH]ncc21` [Example 41, 5-(7-Fluoropyrazolo[4,3-b]indol-4(1H)-yl)-4-methylpyridin-2-amine], the IC50 on human MetAP2 enzyme [3] and on human MetAP2 enzyme [4] was 12.6 nM throughout.

Take `CC(c1ccccc1)n1c2ccc(F)cc2c2[nH]ncc21` (stereo not shown) [Example 132, 7-Fluoro-4-(1-phenylethyl)-1,4-dihydropyrazolo[4,3-b]indole]: the IC50 against human MetAP2 enzyme [3] and on human MetAP2 enzyme [4] was 50.1 nM each time.

For the molecule `Cc1ncccc1-n1c2ccc(F)cc2c2[nH]ncc21` [Example 61, 7-Fluoro-4-(2-methylpyridin-3-yl)-1,4-dihydropyrazolo[4,3-b]indole], the IC50 is 12.6 nM on human MetAP2 enzyme [3] and 15.8 nM at human MetAP2 enzyme [4].
